# Target: T1, human CRTH2 (Homo sapiens, UniProt Q9Y5Y4)
# T1 construct: expressed in transfected cells; host or cells: L1.2 cells, pEAK expression vector, puromycin-selected
# T1 sequence (Q9Y5Y4 1-395): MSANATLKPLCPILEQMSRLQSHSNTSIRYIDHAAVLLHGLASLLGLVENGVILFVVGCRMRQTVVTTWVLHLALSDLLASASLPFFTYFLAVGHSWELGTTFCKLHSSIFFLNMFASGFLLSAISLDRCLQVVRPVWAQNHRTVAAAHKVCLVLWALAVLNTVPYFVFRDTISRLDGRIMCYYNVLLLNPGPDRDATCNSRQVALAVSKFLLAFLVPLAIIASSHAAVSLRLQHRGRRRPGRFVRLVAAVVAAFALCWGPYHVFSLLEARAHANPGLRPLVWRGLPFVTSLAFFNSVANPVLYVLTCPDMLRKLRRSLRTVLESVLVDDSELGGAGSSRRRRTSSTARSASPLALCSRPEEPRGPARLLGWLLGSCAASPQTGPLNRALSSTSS
# Assay: Measurement of Ca2+ mobilization in the human CRTH2-transfected L1.2 cell line (Assay 1)
# Assay type: cell-based
# Details: PGD2-induced Ca2+ mobilization in CRTH2-transfected L1.2 cells; compounds as yielded by solid phase synthesis, purity about 40 to 90%; read-out: Activity class
# Procedure: Human CRTH2 cDNA was amplified from human eosinophil cDNA with gene specific primers containing restriction sites for cloning into pEAK vector (Edge Bio Systems). The human CRTH2 cDNA was cloned into the mammalian expression vector pEAK. This expression plasmid (40 μg) was transfected into L1.2 cells, at a cell density of 1×10^7 cells/500 μl, by using electroporation apparatus (Gene Pulser II, BioRad) at 250V/1,000 μF. One day after the transfection, puromycin (1 μg/ml, Sigma) was added into the cell culture plates. Two weeks after the transfection, grown cells were picked up for further growth.
# [Measurement of Ca^2+ Mobilization in the Human CRTH2-Transfected L1.2 Cell Line] (Assay 1)
# Ca^2+ loading buffer was prepared by mixing 5 μl of Fluo-3AM (2 mM in DMSO, final 1 μM, Molecular Probes) and 10 μl of pluronic F-127 (Molecular Probes) and diluting the resulting mixture in 10 ml of Ca^2+ assay buffer (20 mM HEPES pH 7.6, 0.1% BSA, 1 mM probenecid, Hanks' solution). The CRTH2 transfected cells which were prepared in Example 1 were washed with PBS, resuspended in Ca^2+ loading buffer at 1×10^7 cells/ml, and incubated for 60 min at room temperature. After incubation, cells were washed and resuspended in Ca^2+ assay buffer, then dispensed into transparent-bottom 96-well plates (#3631, Costar) at 2×10^5 cells/well. Cells were incubated with various concentrations of test compound for 5 minutes at room temperature. The emitted 480 nm fluorescence was measured on FDSS6000, a Ca^2+-measurement apparatus (Hamamatsu Photonics, Hamamatsu, Japan).
# Assay results in Assay 1 are shown in Examples and tables of the Examples below. The data corresponds to the compounds as yielded by solid phase synthesis and thus to levels of purity of about 40 to 90%. For practical reasons, the compounds are grouped in four classes of activity as follows: IC50=A(< or =)10 nM<B(< or =)100 nM<C(< or =)500 nM<D
row,SMILES,IC50
1,CN(C)c1nc(Cc2ccc(NC(=O)c3ccc(S(N)(=O)=O)cc3)cc2)nc(Cl)c1CC(=O)O [Example 1-40],100 to 500 nM
2,CN(CC(=O)NC1CCCC1)c1nc(Cc2ccc(NC(=O)c3ccc4ccccc4c3)cc2)ncc1CC(=O)O [Example 2-2],< 10 nM
3,CN(CC(=O)N1CCCC1)c1nc(Cc2ccc(NC(=O)c3ccc4ccccc4c3)cc2)ncc1CC(=O)O [Example 2-3],< 10 nM
4,CN(CC(=O)NC1CCCC1)c1nc(Cc2ccc(NC(=O)c3ccccc3)cc2)ncc1CC(=O)O [Example 2-4],10 to 100 nM
5,CN(CC(=O)NC1CCCC1)c1nc(Cc2ccc(NC(=O)/C=C/c3ccccc3)cc2)ncc1CC(=O)O [Example 2-5],< 10 nM
6,CN(C)c1nc(Cc2ccc(NC(=O)c3ccc(Cl)cc3)cc2)ncc1CC(=O)O [Example 2-6],< 10 nM
7,COc1cccc(C(=O)Nc2ccc(Cc3ncc(CC(=O)O)c(N(C)C)n3)cc2)c1 [Example 2-14],10 to 100 nM
8,CN(C)c1nc(Cc2ccc(NC(=O)c3ccc(Br)cc3)cc2)ncc1CC(=O)O [Example 2-16],< 10 nM
9,CN(C)c1nc(Cc2ccc(NC(=O)/C=C/c3ccc(C(F)(F)F)cc3)cc2)ncc1CC(=O)O [Example 2-17],< 10 nM
10,CC(c1ccc(NC(=O)c2ccc3ccccc3c2)cc1)c1ncc(CC(=O)O)c(N(C)C)n1 (stereo not shown) [Example 2-18],< 10 nM
11,CN(C)c1nc(Cc2ccc(NC(=O)c3ccc(OC(F)(F)F)cc3)cc2)ncc1CC(=O)O [Example 2-19],< 10 nM
12,CN(C)c1nc(Cc2ccc(NC(=O)c3ccc(F)cc3)cc2)ncc1CC(=O)O [Example 2-20],10 to 100 nM
13,"O=C(O)Cc1c(Cl)nc(Cc2ccc(NC(=O)c3ccc4ccccc4c3)cc2)nc1N1CCCC1 [Example 3-1, {4-Chloro-2-[4-(2-naphthoylamino)benzyl]-6-pyrrolidin-1-ylpyrimidin-5-yl}acetic acid]",< 10 nM
14,CN(CC(=O)O)c1nc(Cc2ccc(NC(=O)c3ccc4ccccc4c3)cc2)nc(Cl)c1CC(=O)O [Example 3-2],10 to 100 nM
15,CN(c1nc(Cc2ccc(NC(=O)c3ccc4ccccc4c3)cc2)nc(Cl)c1CC(=O)O)C1CCCCC1 [Example 3-3],< 10 nM
16,CC(C)N(C)c1nc(Cc2ccc(NC(=O)c3ccc4ccccc4c3)cc2)nc(Cl)c1CC(=O)O [Example 3-4],< 10 nM
17,O=C(O)Cc1c(Cl)nc(Cc2ccc(NC(=O)c3ccc4ccccc4c3)cc2)nc1N1CCOCC1 [Example 3-6],< 10 nM
18,O=C(O)Cc1c(Cl)nc(Cc2ccc(NC(=O)c3ccc4ccccc4c3)cc2)nc1N1CCCCC1 [Example 3-7],< 10 nM
19,CN(C)c1nc(Cc2ccc(NC(=O)c3ccc4cc[nH]c4c3)cc2)nc(Cl)c1CC(=O)O [Example 3-8],< 10 nM
20,COc1nc(Cc2ccc(NC(=O)c3ccc4ccccc4c3)cc2)nc(Cl)c1CC(=O)O [Example 3-9],< 10 nM
21,O=C(O)Cc1c(Cl)nc(Cc2ccc(NC(=O)c3ccc4ccccc4c3)cc2)nc1N1CC=CC1 [Example 3-10],< 10 nM
22,CCN(CC)c1nc(Cc2ccc(NC(=O)c3ccc4ccccc4c3)cc2)nc(Cl)c1CC(=O)O [Example 3-11],10 to 100 nM
23,CCN(C)c1nc(Cc2ccc(NC(=O)c3ccc4ccccc4c3)cc2)nc(Cl)c1CC(=O)O [Example 3-12],< 10 nM
24,O=C(O)Cc1c(Cl)nc(Cc2ccc(NC(=O)c3ccc4ccccc4c3)cc2)nc1N1CCC(O)C1 (stereo not shown) [Example 3-13],< 10 nM
25,O=C(O)Cc1c(Cl)nc(Cc2ccc(NC(=O)c3ccc4ccccc4c3)cc2)nc1N1CCC[C@H]1C(=O)O [Example 3-14],10 to 100 nM
26,CSc1ccc(C(=O)Nc2ccc(Cc3nc(Cl)c(CC(=O)O)c(N4CCCC4)n3)cc2)cc1 [Example 3-15],< 10 nM
27,COc1ccc(C(=O)Nc2ccc(Cc3nc(Cl)c(CC(=O)O)c(N4CCCC4)n3)cc2)cc1Cl [Example 3-16],< 10 nM
28,"CN(C)c1nc(Cc2ccc(NC(=O)c3ccc4ccccc4c3)cc2)nc(Cl)c1CC#N [Example 12, N-(4-{[4-Chloro-5-(cyanomethyl)-6-(dimethylamino)pyrimidin-2-yl]methyl}phenyl)-2-naphthamide]",100 to 500 nM

# The remaining lines, values ahead:
row,IC50,SMILES
1,10 to 100 nM,"CN(CC(=O)NC1CCCC1)c1nc(Cc2ccc(NC(=O)Nc3ccccc3)cc2)nc(Cl)c1CC(=O)O [Example 4-1, {2-{4-[(Anilinocarbonyl)amino]benzyl}-4-chloro-6-[[2-(cyclopentylamino)-2-oxoethyl](methyl)amino]pyrimidin-5-yl}acetatic acid]"
2,10 to 100 nM,CN(CC(=O)NC1CCCC1)c1nc(Cc2ccc(NC(=O)NCc3ccccc3)cc2)nc(Cl)c1CC(=O)O [Example 4-2]
3,10 to 100 nM,CN(CC(=O)NC1CCCC1)c1nc(Cc2ccc(NC(=O)NCCc3ccccc3)cc2)nc(Cl)c1CC(=O)O [Example 4-3]
4,10 to 100 nM,CN(CC(=O)NC1CCCC1)c1nc(Cc2ccc(NC(=O)Nc3ccc4ccccc4c3)cc2)nc(Cl)c1CC(=O)O [Example 4-4]
5,10 to 100 nM,CN(C)c1nc(Cc2ccc(NC(=O)NCc3ccccc3)cc2)ncc1CC(=O)O [Example 4-5]
6,100 to 500 nM,CN(Cc1ccccc1)C(=O)Nc1ccc(Cc2ncc(CC(=O)O)c(N(C)C)n2)cc1 [Example 4-6]
7,> 500 nM,"CN(CC(=O)NC1CCCC1)c1nc(Cc2ccc(NCC3CCCCC3)cc2)nc(Cl)c1CC(=O)O [Example 5-1, {4-Chloro-2-{4-[(cyclohexylmethyl)amino]benzyl}-6-[[2-(cyclopentylamino)-2-oxoethyl](methyl)amino]pyrimidin-5-yl}acetic add]"
8,100 to 500 nM,CN(CC(=O)NC1CCCC1)c1nc(Cc2ccc(NC/C=C/c3ccccc3)cc2)nc(Cl)c1CC(=O)O [Example 5-4]
9,> 500 nM,CCCCCCCNc1ccc(Cc2nc(Cl)c(CC(=O)O)c(N(C)CC(=O)NC3CCCC3)n2)cc1 [Example 5-5]
10,100 to 500 nM,"CN(C)c1nc(Cc2ccc(N(C)C(=O)c3ccc(Cl)cc3)cc2)nc(Cl)c1CC(=O)O [Example 6-1, [4-Chloro-2-{4-[(4-chlorobenzoyl)(methyl)amino]benzyl}-6-(dimethylamino)pyrimidin-5-yl]acetic acid]"
11,> 500 nM,CN(C)c1nc(Cc2ccc(N(C)C(=O)/C=C/c3ccccc3)cc2)nc(Cl)c1CC(=O)O [Example 6-2]
12,> 500 nM,CN(C)c1nc(Cc2ccc(N(C)C(=O)c3ccc4ccccc4n3)cc2)nc(Cl)c1CC(=O)O [Example 6-3]
13,10 to 100 nM,"CN(C)c1nc(Cc2ccc(NC(=O)c3ccc4ccccc4c3)cc2)nc(N2CCOCC2)c1CC(=O)O [Example 7-1, {4-(Dimethylamino)-6-morpholin-4-yl-2-[4-(2-naphthoylamino)benzyl]pyrimidin-5-yl}acetic acid]"
14,10 to 100 nM,CN(C)c1nc(Cc2ccc(NC(=O)c3ccc4ccccc4c3)cc2)nc(N(C)C)c1CC(=O)O [Example 7-3]
15,10 to 100 nM,CN(C)c1nc(Cc2ccc(NC(=O)c3ccc4ccccc4c3)cc2)nc(N2CCCC2)c1CC(=O)O [Example 7-4]
16,10 to 100 nM,CN(C)c1nc(Cc2ccc(NC(=O)c3ccc4ccccc4c3)cc2)nc(N2CCCCC2)c1CC(=O)O [Example 7-5]
17,< 10 nM,CN(C)c1nc(Cc2ccc(NC(=O)c3ccc(Cl)c(Cl)c3)cc2)nc(N(C)C)c1CC(=O)O [Example 7-6]
18,< 10 nM,CN(C)c1nc(Cc2ccc(NC(=O)/C=C/c3ccccc3)cc2)nc(N(C)C)c1CC(=O)O [Example 7-7]
19,< 10 nM,"Cc1nc(Cc2ccc(NC(=O)c3ccc4ccccc4c3)cc2)nc(N2CCCC2)c1CC(=O)O [Example 8-1, {4-Methyl-2-[4-(2-naphthoylamino)benzyl]-6-pyrrolidin-1-ylpyrimidin-5-yl}acetic acid]"
20,< 10 nM,Cc1nc(Cc2ccc(NC(=O)c3ccc(Cl)c(Cl)c3)cc2)nc(N2CCCC2)c1CC(=O)O [Example 8-2]
21,< 10 nM,Cc1nc(Cc2ccc(NC(=O)c3ccc4ccccc4c3)cc2)nc(N(C)C)c1CC(=O)O [Example 8-3]
22,< 10 nM,Cc1nc(Cc2ccc(NC(=O)c3ccc(Cl)c(Cl)c3)cc2)nc(N(C)C)c1CC(=O)O [Example 8-4]
23,< 10 nM,Cc1nc(Cc2ccc(NC(=O)/C=C/c3ccccc3)cc2)nc(N(C)C)c1CC(=O)O [Example 8-5]
24,10 to 100 nM,CN(C)c1nc(Cc2ccc(NC(=O)OCc3ccc([N+](=O)[O-])cc3)cc2)ncc1CC(=O)O [Example 9-4]
